Measured values taken from publication PMC7537397, “Deciphering and predicting CD4^+ T cell immunodominance of influenza virus hemagglutinin” (The Journal of Experimental Medicine, 2020).

Assays:
MHC-II molecules = test: MS-based MHC-II peptidomics, H1-HA–pulsed anti-head and anti-stem EBV-B cell clones of donor HD1; design: species or system human; settings: 401–420: anti-stem clone; 416–430 and 386–400: both anti-head and anti-stem clones; union of n = 3
[1] = system: H1-HA–specific memory CD4^+ T cell clones, donor HD1; test: Functional avidity of memory T cell clones with anti-head or anti-stem EBV-B cell clones as APCs; format: cell-based, human; settings: HLA-DR–restricted clones specific for the peptide
HLA-DR, HLA-DQ, HLA-DP = test: MHC-II restriction of T cell clones with blocking antibodies; format: cell-based, human
[2] = system: H1-HA–specific memory CD4^+ T cell clones, donor HD1; format: cell-based, human; settings: for fold lower functional avidity for H1-HA protein, memory T cell clone specific for the peptide: clones M2 (396–410) and M3 (526–540), had avidity for peptide comparable to clone M1; for functional avidity for peptide, memory T cell clone specific for the peptide: donor HD1 memory clones M1 (411–430), M2 (396–410), M3 (526–540), M4 (121–140), M5 (186–200), M6 (446–460), autologous monocytes; for functional avidity for peptide, memory T cell clone specific for the peptide / functional avidity for H1-HA protein, memory T cell clone specific for the peptide: from EC50, day 3; for functional avidity for H1-HA protein, memory T cell clone specific for the peptide: donor HD1 memory clones M1, M4, M5, M6
[3] = system: naive and memory CD4^+ T cells; test: T cell library screening and epitope mapping, naive and memory CD4^+ T cells; format: cell-based, human; settings: memory library
[4] = system: H1-HA–reactive T cell clones from CD4^+ naive T cell compartment; format: cell-based, human
[5] = system: H1-HA–specific naive CD4^+ T cell clones, donor HD1; format: cell-based, human; settings: for fold lower avidity for protein, naive T cell clone specific for the peptide: clones N2 (521–540) and N3 (536–555); for functional avidity for peptide, naive T cell clone specific for the peptide: donor HD1 naive clones N1 (411–430), N2 (521–540), N3 (536–555), autologous monocytes, from EC50, day 3
[6] = system: H1-HA–reactive T cell clones from CD4^+ memory (Tcm, Tem, or cTfh) compartment, donor HD1; format: cell-based, human
HLA-DRB1*08:01 = HLA-DRB1*08:01 (Homo sapiens, UniProt P01903+P01911, A100R/A103L/A169T/D86S/F76Y/H45Y/I96F/K41T/L162R/M171V/P40S/Q125H/Q178H/Q39Y/Q99D/R218S/R42G/S66Y/V115G/W38E); format: binding; settings: pH 7

QNAIDEITNKVNSVI
detection of H1-HA–derived peptides of the region by MHC-II immunopeptidomics, HD1 B cell clones (MHC-II molecules): detected by MHC-II immunopeptidomics on both anti-head and anti-stem B cell clones | activation, proliferation and functional avidity with anti-stem compared with anti-head B cells as APCs [1]: comparable functional avidity | MHC-II restriction of T cell clones specific for the peptide (HLA-DR, HLA-DQ, HLA-DP): HLA-DR–restricted

RIYQILAIYSTVASS
fold lower functional avidity for H1-HA protein, memory T cell clone specific for the peptide [2]: 1,000 fold | functional avidity for peptide, memory T cell clone specific for the peptide [2]: high functional avidity

HLEKRIENLNKKVDD
detection of H1-HA–derived peptides of the region by MHC-II immunopeptidomics, HD1 B cell clones (MHC-II molecules): detected by MHC-II immunopeptidomics on both anti-head and anti-stem B cell clones | activation, proliferation and functional avidity with anti-stem compared with anti-head B cells as APCs [1]: comparable functional avidity | MHC-II restriction of T cell clones specific for the peptide (HLA-DR, HLA-DQ, HLA-DP): HLA-DR–restricted

VVPRYAFAMERNAGSGIIIS
percentage of immunodominant T cell clones ([3]; donor HD3): 24.5%

SRYSKKFKPEIAIRPKVRDQ
N sister clones (epitope-specific naive clones per TCR Vβ clonotype) [4]: 1

VNSVIEKMNTQFTAV
fold lower functional avidity for H1-HA protein, memory T cell clone specific for the peptide [2]: 1,000 fold | functional avidity for peptide, memory T cell clone specific for the peptide [2]: high functional avidity | percentage of immunodominant T cell clones ([3]; donor HD4): 31.1%

GKLCKLRGVAPLHLG
N sister clones (epitope-specific naive clones per TCR Vβ clonotype) [4]: 1

GFLDIWTYNAELLVL
N sister clones (epitope-specific naive clones per TCR Vβ clonotype) [4]: 1

AGAKSFYKNLIWLVKKGNSY
N sister clones (epitope-specific naive clones per TCR Vβ clonotype) [4]: 1

GFLDIWTYNAELLVLLENER
N sister clones (epitope-specific naive clones per TCR Vβ clonotype) [4]: 1

KLESTRIYQILAIYSTVASS
fold lower avidity for protein, naive T cell clone specific for the peptide [5]: 100 fold | functional avidity for peptide, naive T cell clone specific for the peptide [5]: high avidity

LENERTLDYHDSNVK
functional avidity for peptide, memory T cell clone specific for the peptide [2]: functional avidity lower than the median of the distribution | functional avidity for H1-HA protein, memory T cell clone specific for the peptide [2]: functional avidity lower than the median of the distribution | MHC-II restriction of T cell clones specific for the peptide (HLA-DR, HLA-DQ, HLA-DP): HLA-DQ

EKMNTQFTAVGKEFNHLEKR
detection of H1-HA–derived peptides of the region by MHC-II immunopeptidomics, HD1 B cell clones (MHC-II molecules): did not detect any | number of different TCR Vβ clonotypes specific for the peptide ([6]; 88 distinct clonotypes in total): 16 clonotypes | number of sequenced T cell clones specific for the peptide ([6]; 274 clones sequenced): 62 clones | activation, proliferation and functional avidity with anti-stem compared with anti-head B cells as APCs [1]: much lower activation and proliferation | reduction of functional avidity with anti-stem compared with anti-head B cells as APCs [1]: 10 fold | binding affinity to HLA-DRB1*08:01 relative to subdominant peptides (HLA-DRB1*08:01): comparable to that of subdominant peptides | MHC-II restriction of T cell clones specific for the peptide (HLA-DR, HLA-DQ, HLA-DP): HLA-DR restricted

TVASSLVLVVSLGAISFWMC
fold lower avidity for protein, naive T cell clone specific for the peptide [5]: 100 fold | functional avidity for peptide, naive T cell clone specific for the peptide [5]: high avidity | N sister clones (epitope-specific naive clones per TCR Vβ clonotype) [4]: 1

EDKHNGKLCKLRGVAPLHLG
N sister clones (epitope-specific naive clones per TCR Vβ clonotype) [4]: 1

EGRMNYYWTLVEPGDKITFE
activation, proliferation and functional avidity with anti-stem compared with anti-head B cells as APCs [1]: much lower activation and proliferation | reduction of functional avidity with anti-stem compared with anti-head B cells as APCs [1]: 10 fold | MHC-II restriction of T cell clones specific for the peptide (HLA-DR, HLA-DQ, HLA-DP): HLA-DR restricted

KGKEVLVLWGIHHPS
functional avidity for peptide, memory T cell clone specific for the peptide [2]: functional avidity lower than the median of the distribution | functional avidity for H1-HA protein, memory T cell clone specific for the peptide [2]: functional avidity lower than the median of the distribution | MHC-II restriction of T cell clones specific for the peptide (HLA-DR, HLA-DQ, HLA-DP): HLA-DQ
